# Assays:
# Format in all cases: cell-based, Escherichia coli
# [1] = test system: E. coli MG1655 ΔAcrAB; assay: Monatin excretion with 2.5 mM sodium decanoate, E. coli MG1655 ΔAcrAB with or without marA (24, 30, 72 h); conditions: n = 2
# [2] = test system: E. coli BL21 DE3; assay: Preliminary study: novobiocin tolerance after sodium decanoate addition; conditions: 2.5 mM sodium decanoate added to the medium
# Source text: This was taken as evidence that acrAB genes are induced with sodium decanoate addition and conferred resistance to novobiocin. Rosenberg, E. Y., et al., Molecular Microbiol. 48:1609-1619, (2003).
# [3] = test system: E. coli MG1655; assay: Monatin excretion with 2.5 mM sodium decanoate, E. coli MG1655 strains with pUC19, robA or ramA (30, 48 h)
# Source text: The strains used for the experiment included E. coli MG1655 : : aspC/proA/pProNdeDel together with the robA gene from E. coli cloned into the pUC19 vector. The control strain was E. coli MG1655 : : aspC/proA/pProNde along with the pUC19 vector. The robA gene was amplified from E. coli W3110 using primers 5′[…]3′ (SEQ ID NO. 20) and 5′[…]3′ (SEQ ID NO. 21), which introduced SalI and BamHI sites at the end of the amplified fragment. The PCR fragment was cloned between the SalI and BamHI sites of the vector pUC19 (GenBank/EMBL accession number L09137). For inoculum, the E. coli strains were grown overnight at 37° C. and 250 rpm in Luria-Bertani (“LB”) medium with 100 μg/mL ampicillin and 50 μg/mL kanamycin.
# For the experimental treatments, Trp-1+glucose medium, a minimal medium that has been used for increased production of tryptophan in E. coli cells (Zeman et al. Folia Microbiol. 35:200-204, (1990)), was prepared as follows. To 800 mL nanopure water the following reagents were added: 2 g (NH4)2SO4 and 13.6 g KH2PO4. The pH was adjusted to 7.0, the volume was increased to 948 mL, and the medium was autoclaved. Following sterilization, 0.2 g MgSO4.7H2O, 0.01 g CaCl2.2H2O, and 0.5 mg FeSO4.7H2O were ad to the medium in a 1.8 mL volume followed by addition of 0.2 mL of Neidhardt's micronutrient solution. Neidhardt F. C., et al., “Culture medium for Enterobacteria,” J. Bacteriol. 119:736-746, (1974). Neidhardt's medium includes (per liter): 0.18 g (NH4)6(MO7)24-4H2O, 1.24 g H3BO3, 0.36 g CoCl2.6H2O, 0.12 g CuSO4 (anhydrous), 0.8 g MnCl2.4H2O, and 0.14 g ZnSO4.7H2O. A 50% glucose solution was prepared separately and sterile-filtered. Forty mL of glucose solution and 10 mL of 1 M 3-Morpholinopropanesulfonic acid (“MOPS”) buffer were added to the base medium (950 mL) for a 1 L final volume.
# Conditions for the treatments included 250 rpm agitation throughout and 37° C. up to induction, then, 30° C. following induction. At 0.30-0.50 OD600 nm, induction of the plasmid genes was initiated. At induction, 1.0 mM IPTG, 0.5% L-arabinose, 0.5 mM pyridoxine hydrochloride, and 0.2 mLs of Balch's vitamins were added. Additions of 10 g/L L-tryptophan, 10 g/L sodium pyruvate, 0.04 mM pyridoxal-5′-phosphate (“PLP”) and 0.2% Tween® 20 (polyoxyethylene 20-sorbitan monolaurate) were made 3 hours following induction. Some treatments included 2.5 mM sodium decanoate addition at 3 hours following induction.
# The strains used for the experiment included E. coli MG1655 : : aspC/proA/pProNdeDel together with the ramA gene from Enterobacter aerogenes cloned into the pUC19 vector (GenBank/EMBL accession number L09137). The control strain was E. coli MG1655 : : aspC/proA/pProNde along with the pUC19 vector. The ramA gene was amplified from E. aerogenes ATCC 13048 by using primers, 5′[…]3′ (SEQ ID NO. 22) and 5′[…]3′ (SEQ ID NO. 23), which introduced Sal I and BamH I sites at the end of the amplified fragment. The PCR fragment was cloned between the Sal I and BamH I sites of the vector pUC19 (GenBank/EMBL accession number L09137). For inoculum, the E. coli strains were grown overnight at 37° C. and 250 rpm in Luria-Bertani (“LB”) medium with 100 μg/mL ampicillin and 50 μg/mL kanamycin.
# For the experimental treatments, Trp-1+glucose medium, a minimal medium that has been used for increased production of tryptophan in E. coli cells (Zeman et al. Folia Microbiol. 35:200-204, (1990)), was prepared as follows. To 800 mL nanopure water the following reagents were added: 2 g (NH4)2SO4 and 13.6 g KU2PO4. The pH was adjusted to 7.0, the volume was increased to 948 mL, and the medium was autoclaved. Following sterilization, 0.2 g MgSO4.7H2O, 0.01 g CaCl2.2H2O, and 0.5 mg FeSO4.7H2O were to the medium in a 1.8 mL volume followed by addition of 0.2 mL of Neidhardt's micronutrient solution. Neidhardt F. C., et al., “Culture medium for Enterobacteria,” J. Bacteriol. 119:736-746, (1974). […]
# [4] = ΔAcrAB AspC ProA pProNde del pUC19 (control)
# [5] = E. coli MG1655::aspC proA pProNdedel pUC19 (control), n = 2
# [6] = E. coli MG1655::aspC proA pProNdedel, ramA pUC19, n = 2
# [7] = E. coli MG1655::aspC proA pProNdedel, robA pUC19, n = 2
smiles,measurement,setting,value
CCCCCCCCCC(=O)[O-].[Na+] [sodium decanoate],"Mean monatin per dry cell weight, 24",[1]; [4],22.2 mg/g
same,"Mean monatin per dry cell weight, 30",[1]; [4],20.6 mg/g
same,"Mean monatin per dry cell weight, 72",[1]; [4],62.6 mg/g
same,"Mean monatin per dry cell weight, 24",[1]; ΔAcrAB with marA insert,54.6 mg/g
same,"Mean monatin per dry cell weight, 30",[1]; ΔAcrAB with marA insert,56.0 mg/g
same,"Mean monatin per dry cell weight, 72",[1]; ΔAcrAB with marA insert,209.0 mg/g
same,tolerance to novobiocin,[2],80 to 160 µg/mL
same,"Monatin/dcw, 30 hours",[3]; [5],4.66 mg/g
same,"Monatin/dcw, 48 hours",[3]; [5],4.31 mg/g
same,"Monatin/dcw, 30 hours",[3]; [6],3.69 mg/g
same,"Monatin/dcw, 48 hours",[3]; [6],13.90 mg/g
same,"Monatin/dcw, 30 hours",[3]; [7],6.91 mg/g
same,"Monatin/dcw, 48 hours",[3]; [7],25.62 mg/g

# Reference: US8158389B2, “Products and methods for in vivo secretion of monatin” (priority 2005, dated 2012)
